Data: patent publication US12539292B2, “BRM targeting compounds and associated methods of use” (Arvinas Operations, Inc., priority 2018, dated 2026)

Molecular target: T1, BRM (Homo sapiens, UniProt P51531)
T1 construct: In-Cell Western Screen of BRM Degradation in SW1573 Cells; endogenous in cells; host or cells: SW1573
Test: In-cell Western screen of BRM degradation in SW1573 cells (Dmax and DC50)
Format: cell-based
Settings: BRM degradation, SW1573 cells, Table 2D; for Dmax: read-out: **Dmax (%) (% degraded); for DC50: read-out: *DC50
Procedure, shortened: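 SW1573, overnight cpd exposure (18-20 h), 0.1% DMSO final. PFA fix, 0.5% Triton permeabilization, block; IR secondaries at 800/680 nm. Odyssey read → Dmax, DC50.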

T1 sequence (P51531 whole entry): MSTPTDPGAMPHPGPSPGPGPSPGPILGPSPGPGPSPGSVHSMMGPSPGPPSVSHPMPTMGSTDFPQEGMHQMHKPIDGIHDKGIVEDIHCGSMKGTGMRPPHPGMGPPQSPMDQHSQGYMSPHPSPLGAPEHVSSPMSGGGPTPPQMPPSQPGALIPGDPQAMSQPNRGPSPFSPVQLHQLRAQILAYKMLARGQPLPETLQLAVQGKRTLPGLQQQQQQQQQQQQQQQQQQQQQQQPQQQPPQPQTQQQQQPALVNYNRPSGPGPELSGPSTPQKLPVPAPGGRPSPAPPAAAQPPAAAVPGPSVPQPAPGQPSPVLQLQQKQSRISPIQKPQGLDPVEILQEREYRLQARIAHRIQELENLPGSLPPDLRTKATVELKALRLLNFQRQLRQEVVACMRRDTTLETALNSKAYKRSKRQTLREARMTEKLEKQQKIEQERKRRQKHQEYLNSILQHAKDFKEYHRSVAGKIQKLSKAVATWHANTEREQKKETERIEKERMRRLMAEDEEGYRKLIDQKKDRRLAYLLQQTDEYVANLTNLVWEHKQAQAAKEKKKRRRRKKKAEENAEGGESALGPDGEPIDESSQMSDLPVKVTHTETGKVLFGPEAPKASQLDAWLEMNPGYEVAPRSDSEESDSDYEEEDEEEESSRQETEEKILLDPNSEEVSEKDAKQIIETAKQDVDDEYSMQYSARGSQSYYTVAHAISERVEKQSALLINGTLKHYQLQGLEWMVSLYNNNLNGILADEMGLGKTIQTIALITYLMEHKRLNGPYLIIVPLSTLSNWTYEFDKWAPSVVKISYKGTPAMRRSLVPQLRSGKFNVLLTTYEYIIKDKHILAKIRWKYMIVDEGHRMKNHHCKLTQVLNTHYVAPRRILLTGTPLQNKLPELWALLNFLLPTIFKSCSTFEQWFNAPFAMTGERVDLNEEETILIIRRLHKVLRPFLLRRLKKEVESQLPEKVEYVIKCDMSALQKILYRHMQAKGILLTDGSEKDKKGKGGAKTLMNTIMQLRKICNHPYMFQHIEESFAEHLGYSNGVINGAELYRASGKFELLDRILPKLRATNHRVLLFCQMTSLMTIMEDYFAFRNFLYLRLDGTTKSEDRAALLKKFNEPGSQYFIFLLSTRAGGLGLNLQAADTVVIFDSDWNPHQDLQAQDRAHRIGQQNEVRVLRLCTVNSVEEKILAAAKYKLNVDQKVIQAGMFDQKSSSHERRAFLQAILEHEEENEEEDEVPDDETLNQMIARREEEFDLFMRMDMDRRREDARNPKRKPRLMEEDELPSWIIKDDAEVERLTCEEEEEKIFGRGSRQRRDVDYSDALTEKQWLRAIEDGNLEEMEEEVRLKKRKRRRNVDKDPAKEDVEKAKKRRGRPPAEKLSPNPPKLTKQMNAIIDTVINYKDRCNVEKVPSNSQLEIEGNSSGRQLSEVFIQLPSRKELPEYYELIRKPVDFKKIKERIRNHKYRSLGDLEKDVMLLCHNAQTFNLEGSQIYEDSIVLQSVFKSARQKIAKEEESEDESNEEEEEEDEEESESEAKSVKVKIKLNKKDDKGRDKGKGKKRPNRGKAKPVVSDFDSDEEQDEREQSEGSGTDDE

Row | SMILES | Dmax [%] | DC50 [nM]
1 | Cc1nccn1-c1ccc([C@H](C)NC(=O)[C@@H]2C[C@@H](O)CN2C(=O)[C@@H](c2cc(N3CCN(C[C@H]4C[C@H](Oc5cc(N6C7CCC6CN(c6cc(-c8ccccc8O)nnc6N)C7)ccn5)C4)CC3)no2)C(C)C)cc1 [compound 576, (2S,4R)-1-((2R)-2-(3-(4-(((1r,3R)-3-((4-(3-(3-amino-6-(2-hydroxyphenyl)pyridazin-4-yl)-3,8-diazabicyclo[3.2.1]octan-8-yl)pyridin-2-yl)oxy)cyclobutyl)methyl)piperazin-1-yl)isoxazol-5-yl)-3-methylbutanoyl)-4-hydroxy-N-((S)-1-(4-(2-methyl-1H-imidazol-1-yl)phenyl)ethyl)pyrrolidine-2-carboxamide] | > 75 | < 2.5
2 | Cc1ncsc1-c1ccc([C@H](C)NC(=O)[C@@H]2C[C@@H](O)CN2C(=O)[C@H](c2cc(OCCC3CCN(C[C@H]4C[C@H](Oc5cc(N6C7CCC6CN(c6cc(-c8ccccc8O)nnc6N)C7)ccn5)C4)CC3)no2)C(C)C)c(F)c1F [compound 587, (2S,4R)-1-((2S)-2-(3-(2-(1-(((1r,3S)-3-((4-(3-(3-amino-6-(2-hydroxyphenyl)pyridazin-4-yl)-3,8-diazabicyclo[3.2.1]octan-8-yl)pyridin-2-yl)oxy)cyclobutyl)methyl)piperidin-4-yl)ethoxy)isoxazol-5-yl)-3-methylbutanoyl)-N-((S)-1-(2,3-difluoro-4-(4-methylthiazol-5-yl)phenyl)ethyl)-4-hydroxypyrrolidine-2-carboxamide] | – | > 30
3 | Cc1ncsc1-c1ccc([C@H](C)NC(=O)[C@@H]2C[C@@H](O)CN2C(=O)[C@@H](c2cc(OCCC3CCN(C[C@H]4C[C@H](Oc5cc(N6C7CCC6CN(c6cc(-c8ccccc8O)nnc6N)C7)ccn5)C4)CC3)no2)C(C)C)c(F)c1F [compound 588, (2S,4R)-1-((2R)-2-(3-(2-(1-(((1r,3R)-3-((4-(3-(3-amino-6-(2-hydroxyphenyl)pyridazin-4-yl)-3,8-diazabicyclo[3.2.1]octan-8-yl)pyridin-2-yl)oxy)cyclobutyl)methyl)piperidin-4-yl)ethoxy)isoxazol-5-yl)-3-methylbutanoyl)-N-((S)-1-(2,3-difluoro-4-(4-methylthiazol-5-yl)phenyl)ethyl)-4-hydroxypyrrolidine-2-carboxamide] | > 75 | < 2.5
4 | Cc1ncsc1-c1cnc([C@H](C)NC(=O)[C@@H]2C[C@@H](O)CN2C(=O)[C@H](c2cc(N3CCC(CN4CCC(O[C@H]5C[C@H](Oc6cc(N7C8CCC7CN(c7cc(-c9ccccc9O)nnc7N)C8)ccn6)C5)CC4)CC3)no2)C(C)C)cn1 [compound 589, (2S,4R)-1-((2S)-2-(3-(4-((4-((1r,3r)-3-((4-(3-(3-amino-6-(2-hydroxyphenyl)pyridazin-4-yl)-3,8-diazabicyclo[3.2.1]octan-8-yl)pyridin-2-yl)oxy)cyclobutoxy)piperidin-1-yl)methyl)piperidin-1-yl)isoxazol-5-yl)-3-methylbutanoyl)-4-hydroxy-N-((S)-1-(5-(4-methylthiazol-5-yl)pyrazin-2-yl)ethyl)pyrrolidine-2-carboxamide] | – | > 30
5 | Cc1ncsc1-c1cnc([C@H](C)NC(=O)[C@@H]2C[C@@H](O)CN2C(=O)[C@@H](c2cc(N3CCC(CN4CCC(O[C@H]5C[C@H](Oc6cc(N7C8CCC7CN(c7cc(-c9ccccc9O)nnc7N)C8)ccn6)C5)CC4)CC3)no2)C(C)C)cn1 [compound 590, (2S,4R)-1-((2R)-2-(3-(4-((4-((1r,3r)-3-((4-(3-(3-amino-6-(2-hydroxyphenyl)pyridazin-4-yl)-3,8-diazabicyclo[3.2.1]octan-8-yl)pyridin-2-yl)oxy)cyclobutoxy)piperidin-1-yl)methyl)piperidin-1-yl)isoxazol-5-yl)-3-methylbutanoyl)-4-hydroxy-N-((S)-1-(5-(4-methylthiazol-5-yl)pyrazin-2-yl)ethyl)pyrrolidine-2-carboxamide] | > 75 | < 2.5
6 | Cc1ncsc1-c1ccc([C@H](C)NC(=O)[C@@H]2C[C@@H](O)CN2C(=O)[C@@H](c2cc(N3CCN(CCN4CCC(C(C)n5cc(-c6cc(-c7ccccc7O)nnc6N)cn5)CC4)CC3)no2)C(C)C)cc1 (stereo partly drawn) [compound 591, (2S,4R)-1-((2R)-2-(3-(4-(2-(4-(1-(4-(3-amino-6-(2-hydroxyphenyl)pyridazin-4-yl)-1H-pyrazol-1-yl)ethyl)piperidin-1-yl)ethyl)piperazin-1-yl)isoxazol-5-yl)-3-methylbutanoyl)-4-hydroxy-N-((S)-1-(4-(4-methylthiazol-5-yl)phenyl)ethyl)pyrrolidine-2-carboxamide] | > 75 | < 2.5
7 | Cc1ncsc1-c1ccc([C@H](C)NC(=O)[C@@H]2C[C@@H](O)CN2C(=O)[C@@H](c2cc(N3CCN(CCOc4cc(N5C6CCC5CN(c5cc(-c7ccccc7O)nnc5N)C6)ccn4)CC3)no2)C(C)C)cc1 [compound 592, (2S,4R)-1-((2R)-2-(3-(4-(2-((4-(3-(3-amino-6-(2-hydroxyphenyl)pyridazin-4-yl)-3,8-diazabicyclo[3.2.1]octan-8-yl)pyridin-2-yl)oxy)ethyl)piperazin-1-yl)isoxazol-5-yl)-3-methylbutanoyl)-4-hydroxy-N-((S)-1-(4-(4-methylthiazol-5-yl)phenyl)ethyl) pyrrolidine-2-carboxamide] | > 75 | < 2.5
8 | Cc1ncsc1-c1ccc([C@H](C)NC(=O)[C@@H]2C[C@@H](O)CN2C(=O)[C@H](c2cc(OCCC3CCN(C[C@H]4C[C@H](N5CCC(CN6CCOC7(CCN(c8cc(-c9ccccc9O)nnc8N)CC7)C6)CC5)C4)CC3)no2)C(C)C)cc1 [compound 597, (2S,4R)-1-((S)-2-(3-(2-(1-(((1r,3S)-3-(4-((9-(3-amino-6-(2-hydroxyphenyl)pyridazin-4-yl)-1-oxa-4,9-diazaspiro[5.5]undecan-4-yl)methyl)piperidin-1-yl)cyclobutyl)methyl)piperidin-4-yl)ethoxy)isoxazol-5-yl)-3-methylbutanoyl)-4-hydroxy-N-((S)-1-(4-(4-methylthiazol-5-yl)phenyl)ethyl)pyrrolidine-2-carboxamide] | > 75 | 10 to 30
9 | Cc1ncsc1-c1ccc([C@H](C)NC(=O)[C@@H]2C[C@@H](O)CN2C(=O)[C@@H](c2cc(OCCC3CCN(C[C@H]4C[C@H](N5CCC(CN6CCOC7(CCN(c8cc(-c9ccccc9O)nnc8N)CC7)C6)CC5)C4)CC3)no2)C(C)C)cc1 [compound 598, (2S,4R)-1-((R)-2-(3-(2-(1-(((1r,3R)-3-(4-((9-(3-amino-6-(2-hydroxyphenyl)pyridazin-4-yl)-1-oxa-4,9-diazaspiro[5.5]undecan-4-yl)methyl)piperidin-1-yl)cyclobutyl)methyl)piperidin-4-yl)ethoxy)isoxazol-5-yl)-3-methylbutanoyl)-4-hydroxy-N-((S)-1-(4-(4-methylthiazol-5-yl)phenyl)ethyl)pyrrolidine-2-carboxamide] | > 75 | < 2.5
10 | Cc1ncsc1-c1ccc([C@H](C)NC(=O)[C@@H]2C[C@@H](O)CN2C(=O)[C@@H](c2cc(OCCC3CCN(C[C@H]4C[C@H](N5CCC(C(C)n6cc(-c7cc(-c8ccccc8O)nnc7N)cn6)CC5)C4)CC3)no2)C(C)C)cc1 (stereo partly drawn) [compound 599, (2S,4R)-1-((2R)-2-(3-(2-(1-(((1r,3R)-3-(4-(1-(4-(3-amino-6-(2-hydroxyphenyl)pyridazin-4-yl)-1H-pyrazol-1-yl)ethyl)piperidin-1-yl)cyclobutyl)methyl)piperidin-4-yl)ethoxy)isoxazol-5-yl)-3-methylbutanoyl)-4-hydroxy-N-((S)-1-(4-(4-methylthiazol-5-yl)phenyl)ethyl)pyrrolidine-2-carboxamide] | > 75 | < 2.5
11 | Cc1nccn1-c1ccc([C@H](C)NC(=O)[C@@H]2C[C@@H](O)CN2C(=O)[C@H](c2cc(N3CCC(O[C@H]4C[C@H](Oc5cc(N6C7CCC6CN(c6cc(-c8ccccc8O)nnc6N)C7)ccn5)C4)CC3)no2)C(C)C)cc1 [compound 600, (2S,4R)-1-((2S)-2-(3-(4-((1r,3S)-3-((4-(3-(3-amino-6-(2-hydroxyphenyl)pyridazin-4-yl)-3,8-diazabicyclo[3.2.1]octan-8-yl)pyridin-2-yl)oxy)cyclobutoxy)piperidin-1-yl)isoxazol-5-yl)-3-methylbutanoyl)-4-hydroxy-N-((S)-1-(4-(2-methyl-1H-imidazol-1-yl)phenyl)ethyl)pyrrolidine-2-carboxamide] | – | > 30
12 | Cc1nccn1-c1ccc([C@H](C)NC(=O)[C@@H]2C[C@@H](O)CN2C(=O)[C@@H](c2cc(N3CCC(O[C@H]4C[C@H](Oc5cc(N6C7CCC6CN(c6cc(-c8ccccc8O)nnc6N)C7)ccn5)C4)CC3)no2)C(C)C)cc1 [compound 601, (2S,4R)-1-((2R)-2-(3-(4-((1r,3R)-3-((4-(3-(3-amino-6-(2-hydroxyphenyl)pyridazin-4-yl)-3,8-diazabicyclo[3.2.1]octan-8-yl)pyridin-2-yl)oxy)cyclobutoxy)piperidin-1-yl)isoxazol-5-yl)-3-methylbutanoyl)-4-hydroxy-N-((S)-1-(4-(2-methyl-1H-imidazol-1-yl)phenyl)ethyl)pyrrolidine-2-carboxamide] | > 75 | < 2.5
13 | Cc1ncsc1-c1ccc([C@H](C)NC(=O)[C@@H]2C[C@@H](O)CN2C(=O)[C@@H](c2cc(N3CCC(CN4CCC(Oc5cc(N6C7CCC6CN(c6cc(-c8ccccc8O)nnc6N)C7)ccn5)CC4)CC3)no2)C(C)C)cc1 [compound 602, (2S,4R)-1-((2R)-2-(3-(4-((4-((4-(3-(3-amino-6-(2-hydroxyphenyl)pyridazin-4-yl)-3,8-diazabicyclo[3.2.1]octan-8-yl)pyridin-2-yl)oxy)piperidin-1-yl)methyl)piperidin-1-yl)isoxazol-5-yl)-3-methylbutanoyl)-4-hydroxy-N-((S)-1-(4-(4-methylthiazol-5-yl)phenyl)ethyl)pyrrolidine-2-carboxamide] | > 75 | < 2.5
